From patent US20230066946A1, “1,5-DIPHENYLPYRAZOLYL-3-OXYALKYL ACIDS AND 1-PHENYL-5-THIENYLPYRAZOLYL-3-OXYALKYL ACIDS AND THE USE THEREOF FOR CONTROL OF UNWANTED PLANT GROWTH” (Bayer Aktiengesellschaft, priority 2019, published 2023)

Tests used:
[1] = tested on: POLCO; test: Post-emergence herbicidal action against POLCO; format: in vivo, Polygonum convolvulus; settings: 320 g/ha, visual rating about 3 weeks after treatment
Experimental: (§1) [table] Seeds of mono- and dicotyledonous weed plants are placed in plastic pots in sandy loam soil (twin sowing with one species each of mono- or dicotyledonous weed plants per pot), covered with soil and cultivated in a greenhouse under controlled growth conditions. 2 to 3 weeks after sowing, the test plants are treated at the one-leaf stage. The compounds of the invention, formulated in the form of wettable powders (WP) or as emulsion concentrates (EC), are applied to the green parts of the plants as aqueous suspension or emulsion with addition of 0.5% additive at a water application rate equivalent to 600 litres per hectare. After the test plants have been kept in the greenhouse under optimum growth conditions for about 3 weeks, the activity of the preparations is rated visually in comparison to untreated controls. For example, 100% activity=the plants have died, 0% activity=like control plants. Tables 5.1-5.16 below show the effects of selected compounds of the general formula (I) according to Tables 1 to 3 on various harmful plants at an application rate corresponding to 1280 or 320 g/ha, which have been obtained by the aforementioned experimental method.

[2] = tested on: AMARE; test: Pre-emergence herbicidal action against AMARE; format: in vivo, Amaranthus retroflexus; settings: scored visually after about 3 weeks vs untreated controls; for Pre-emergence action against AMARE in %: 1280 g/ha; for Pre-emergence action at 320 g/ha against AMARE in %: 100% = plants have died, 0% = like control plants
In short: (§2)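 Weed seeds were sown in sandy loam soil in pots and covered; compounds formulated as WP or EC were sprayed onto the covering soil as aqueous suspension/emulsion with 0.5% additive at 600 L/ha water. Application rate 1280 or 320 g/ha. Greenhouse grown; visual % activity vs untreated controls after about 3 weeks.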

[3] = tested on: AMARE; test: Post-emergence herbicidal action against AMARE; format: in vivo, Amaranthus retroflexus; settings: visual rating about 3 weeks after treatment
In short: (§3)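 Visual % damage (100% = dead, 0% = like untreated control) was scored about 3 weeks after foliar spraying of one-leaf-stage plants grown in sandy loam. Doses were 1280 or 320 g/ha, applied as aqueous WP/EC preparations with 0.5% additive in 600 litres per hectare water.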

[4] = tested on: PHBPU; test: Post-emergence herbicidal action against PHBPU; format: in vivo, Pharbitis purpurea; settings: 320 g/ha, visual rating about 3 weeks after treatment
Experimental: as §1

[5] = tested on: SETVI; test: Pre-emergence herbicidal action against SETVI; format: in vivo, Setaria viridis; settings: 1280 g/ha, scored visually after about 3 weeks vs untreated controls
In short: as §2

[6] = tested on: ECHCG; test: Pre-emergence herbicidal action against ECHCG; format: in vivo, Echinochloa crus-galli; settings: scored visually after about 3 weeks vs untreated controls, 100% = plants have died, 0% = like control plants
Excerpt: (§4) Seeds of mono- and dicotyledonous weed plants are placed in plastic pots in sandy loam soil (doubly sown with one species each of mono- or dicotyledonous weed plants per pot) and covered with soil. The compounds of the invention, formulated in the form of wettable powders (WP) or as emulsion concentrates (EC), are then applied onto the surface of the covering soil as aqueous suspension or emulsion with addition of 0.5% additive at a water application rate equivalent to 600 litres per hectare. After the treatment, the pots are placed in a greenhouse and kept under good growth conditions for the trial plants. After about 3 weeks, the effect of the preparations is scored visually in comparison with untreated controls as percentages. For example, 100% activity=the plants have died, 0% activity=like control plants. [table] Tables 4.1-4.15 below show the effects of selected compounds of the general formula (I) according to Tables 1 to 3 on various harmful plants at an application rate corresponding to 1280 or 320 g/ha, which have been obtained by the aforementioned experimental method.

[7] = tested on: STEME; test: Pre-emergence herbicidal action against STEME; format: in vivo, Stellaria media; settings: 1280 g/ha, scored visually after about 3 weeks vs untreated controls
In short: as §2

[8] = tested on: VERPE; test: Pre-emergence herbicidal action against VERPE; format: in vivo, Veronica persica; settings: 320 g/ha, scored visually after about 3 weeks vs untreated controls
Excerpt: as §4

[9] = tested on: MATIN; test: Post-emergence herbicidal action against MATIN; format: in vivo, Matricaria inodora; settings: visual rating about 3 weeks after treatment
In short: as §3

[10] = tested on: STEME; test: Post-emergence herbicidal action against STEME; format: in vivo, Stellaria media; settings: visual rating about 3 weeks after treatment
In short: as §3

[11] = tested on: SETVI; test: Post-emergence herbicidal action against SETVI; format: in vivo, Setaria viridis; settings: 1280 g/ha, post-emergence at one-leaf stage, rated visually after about 3 weeks vs untreated controls
Experimental: as §1

[12] = tested on: ECHCG; test: Post-emergence herbicidal action against ECHCG; format: in vivo, Echinochloa crus-galli; settings: 1280 g/ha, post-emergence at one-leaf stage, rated visually after about 3 weeks vs untreated controls
Experimental: as §1

[13] = tested on: VIOTR; test: Post-emergence herbicidal action against VIOTR; format: in vivo, Viola tricolor; settings: 320 g/ha, visual rating about 3 weeks after treatment
Experimental: as §1

[14] = tested on: VERPE; test: Post-emergence herbicidal action against VERPE; format: in vivo, Veronica persica; settings: 320 g/ha, visual rating about 3 weeks after treatment
Experimental: as §1

SMILES | Post-emergence action against POLCO in % [1] [%] | Pre-emergence action against AMARE in % [2] [%] | Post-emergence action against AMARE in % ([3]; 1280 g/ha) [%] | Post-emergence action against PHBPU in % [4] [%] | Pre-emergence action against SETVI in % [5] [%] | Pre-emergence action at 1280 g/ha against ECHCG in % [6] [%] | Pre-emergence action against STEME in % [7] [%] | Pre-emergence action at 320 g/ha against AMARE in % [2] [%] | Post-emergence action against AMARE in % ([3]; 320 g/ha) [%] | Pre-emergence action against VERPE in % [8] [%] | Post-emergence action against VIOTR in % [13] [%] | Post-emergence action against VERPE in % [14] [%] | other results
COC(=O)COc1nn(-c2ccccc2)c(-c2ccc(Cl)cc2)c1Cl [I-004] | 80 | 90 | 80 | 80 | – | – | – | – | – | – | – | – | –
C=CCNC(=O)COc1nn(-c2ccccc2)c(-c2ccc(F)cc2)c1Br [III-004] | 80 | 100 | 100 | 80 | 100 | 100 | 100 | 80 | 80 | 100 | – | – | –
COC(=O)C(C)Oc1nn(-c2ccccc2)c(-c2cccc(F)c2)c1Cl (stereo not shown) [I-164] | – | 100 | 100 | – | 100 | 100 | 100 | – | – | – | – | – | Post-emergence action against MATIN in % ([9]; 1280 g/ha): 100%; Post-emergence action against STEME in % ([10]; 1280 g/ha): 100%; Post-emergence action against SETVI in % [11]: 100%; Post-emergence action against ECHCG in % [12]: 90%
COC(=O)COc1nn(-c2cccc(F)c2)c(-c2ccc(Cl)cc2)c1Cl [I-005] | – | – | 80 | 80 | – | – | – | – | 80 | – | 80 | – | –
COC(=O)COc1nn(-c2cccc(F)c2)c(-c2cccc(F)c2)c1C#N [I-047] | – | – | – | 80 | – | – | – | 90 | 80 | 90 | 90 | 80 | Post-emergence action against MATIN in % ([9]; 320 g/ha): 80%; Post-emergence action against STEME in % ([10]; 320 g/ha): 80%
COC(=O)COc1nn(-c2ccc(Cl)cc2)c(-c2cccc(F)c2)c1Cl [I-029] | – | – | – | 80 | – | – | – | – | – | – | – | 80 | –
